Measurements: patent publication US20260008760A1, “DIPEPTIDYL PEPTIDASE 1 INHIBITORS AND USES THEREOF” (Insmed Incorporated, priority 2024, published 2026)
Read-outs that look alike come from different tables or passages of the source.

How the values were obtained:
DPP1 in HL-60 cells = DPP1 in HL-60 cells (Homo sapiens, UniProt P53634); assay: DPP1 Cell IC50 assay; assay type: cell-based; set-up: host or cells: HL-60 cells; details: 60 min pre-incubation, H-Gly-Phe-AFC substrate, average of n runs
Chain of DPP1 in HL-60 cells (P53634 25-463): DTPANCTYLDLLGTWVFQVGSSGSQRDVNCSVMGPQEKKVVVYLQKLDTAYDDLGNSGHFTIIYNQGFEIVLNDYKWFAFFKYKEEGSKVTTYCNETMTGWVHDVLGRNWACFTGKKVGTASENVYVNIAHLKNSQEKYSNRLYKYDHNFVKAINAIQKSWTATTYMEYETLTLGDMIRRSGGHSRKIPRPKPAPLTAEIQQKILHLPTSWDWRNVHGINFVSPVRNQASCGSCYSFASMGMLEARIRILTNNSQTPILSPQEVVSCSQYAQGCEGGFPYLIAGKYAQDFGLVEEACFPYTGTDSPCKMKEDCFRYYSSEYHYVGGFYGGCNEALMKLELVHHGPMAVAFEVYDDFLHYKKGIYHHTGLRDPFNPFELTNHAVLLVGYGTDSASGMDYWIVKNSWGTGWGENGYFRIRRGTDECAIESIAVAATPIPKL
In short: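 HL-60 cells in PBS (5×10^5 live cells per mL) pre-incubated with compound (0.5% DMSO) 60 min at 37° C, 5% CO2, then H-Gly-Phe-AFC substrate (500 μM stock) added for 30 min. Fluorescence at 400/505 nm; % inhibition vs vehicle wells, IC50 from four-parameter logistic fit.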

human DPP1 enzyme = human DPP1 enzyme (Homo sapiens, UniProt P53634); assay: Human DPP1 Enzyme IC50 Assay; assay type: biochemical; set-up: was first proteolytically processed into its mature form using recombinant human cathepsin L; purchased R&D Systems
Chain of human DPP1 enzyme (P53634 25-134 limits assumed): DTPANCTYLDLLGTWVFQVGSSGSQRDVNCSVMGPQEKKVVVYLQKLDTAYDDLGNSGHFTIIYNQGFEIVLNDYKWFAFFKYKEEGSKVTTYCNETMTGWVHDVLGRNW
Chain of human DPP1 enzyme (P53634 231-394 limits assumed): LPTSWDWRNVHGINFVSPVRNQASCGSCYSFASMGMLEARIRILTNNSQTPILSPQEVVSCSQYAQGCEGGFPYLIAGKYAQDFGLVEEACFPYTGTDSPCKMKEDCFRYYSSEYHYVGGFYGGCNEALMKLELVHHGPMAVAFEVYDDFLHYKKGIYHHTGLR
Chain of human DPP1 enzyme (P53634 395-463 limits assumed): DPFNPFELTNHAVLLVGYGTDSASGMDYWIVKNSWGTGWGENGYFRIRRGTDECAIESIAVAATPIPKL
In short: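 Recombinant human DPP1, pre-activated with cathepsin L (pH 4.5), was preincubated with compound 10 min at 37 °C in MES pH 6.0, 50 mM NaCl, 5 mM DTT, 1% DMSO. Cleavage of 400 μM (final) H-Gly-Arg-AMC followed by fluorescence (350/450 nm) over 90 min at 37 °C; IC50 from four-parameter logistic fit versus no-compound control.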

[1] = read-out: Avg. IC50 (DPP1 Cell IC50 value ranges)
[2] = activated recombinant human DPP1, 400 μM H-Gly-Arg-AMC, 10 minutes pre-incubation at 37° C., pH 6.0, average of n runs, read-out: Avg. IC50 (Human DPP1 enzyme IC50 value ranges)

SMILES	IC50 (DPP1 in HL-60 cells; [1]) [nM]	IC50 (human DPP1 enzyme; [2]) [nM]	IC50 (DPP1 in HL-60 cells; Avg. IC50 (DPP1 Cell IC50 value ranges)) [nM]	IC50 (human DPP1 enzyme) [nM]
CN1C(=O)CCc2cc(-c3ccc(C[C@@H](C#N)NC(=O)[C@@H]4CNCC[C@@H](F)CO4)c(F)c3)ccc21 [Compound A155]	1 to 2.5	5 to 15		
C[C@@H]1NC[C@@H](C(=O)N[C@H](C#N)Cc2ccc(-c3ccc4c(F)nn(C)c4c3)cc2)OC[C@@H]1O [Compound A160]	1 to 2.5	5 to 15		
N#C[C@H](Cc1ccc(-c2ccc3c(c2)[C@]2(CCN(C#N)C2)SC3)cc1)NC(=O)[C@@H]1CNCCCO1 [Compound I18]	> 2.5	> 15		
N#C[C@H](Cc1ccc(-c2ccc3c(c2)[C@@]2(CCCN(C4CC4)C2)COC3)cc1)NC(=O)[C@@H]1CNCCCO1 [Compound I12]	> 2.5	5 to 15		
C[C@@H]1NC[C@@H](C(=O)N[C@H](C#N)Cc2ccc(-c3ccc4c(c3)CCC(=O)N4C)cc2F)OC[C@@H]1O [Compound A154]	1 to 2.5	5 to 15		
CO[C@@H]1CCNC[C@@H](C(=O)N[C@H](C#N)Cc2ccc(-c3ccc4cnn(C)c4c3)cc2F)OC1 [Compound H7, (2S,7R)—N-[(1S)-1-cyano-2-[2-fluoro-4-(1-methylindazol-6-yl)phenyl]ethyl]-7-methoxy-1,4-oxazocane-2-carboxamide]	< 1	< 5		
CO[C@H]1CCO[C@H](C(=O)N[C@H](C#N)Cc2ccc(-c3ccc4c(n3)CCCN4)cc2)CNC1 [Compound A43, (2S,6S)—N—((S)-1-cyano-2-(4-(5,6,7,8-tetrahydro-1,5-naphthyridin-2-yl)phenyl)ethyl)-6-methoxy-1,4-oxazocane-2-carboxamide]	> 2.5	> 15		
CO[C@H]1CCO[C@H](C(=O)N[C@H](C#N)Cc2ccc(-c3ccc4oc(=O)n(C)c4c3)s2)CNC1 [Compound F3, (2S,6S)—N-[(1S)-1-cyano-2-[5-(3-methyl-2-oxo-1,3-benzoxazol-5-yl)thiophen-2-yl]ethyl]-6-methoxy-1,4-oxazocane-2-carboxamide]	> 2.5	> 15		
N#C[C@H](Cc1ccc(-c2ccc3c(c2)C2(CCN(C4CC4)CC2)SCC3)cc1)NC(=O)[C@@H]1CNCCCO1 [Compound I7]	> 2.5	> 15		
N#C[C@H](Cc1ccc(NC(=O)c2csc(-c3cscn3)n2)cc1)NC(=O)[C@@H]1CNCCCO1 [Compound D7, (2S)—N-[(1S)-1-cyano-2-{4-[2-(1,3-thiazol-4-yl)-1,3-thiazole-4-amido]phenyl}ethyl]-1,4-oxazepane-2-carboxamide]	> 2.5	> 15		
N#C[C@H](Cc1ccc(-c2ccc3c(c2)C2(CCNCC2)C(=O)C3)cc1)NC(=O)[C@@H]1CNCCCO1 [Compound 22, (2S)—N-[(1S)-1-cyano-2-(4-{2-oxo-3H-spiro[indene-1,4′-piperidin]-6-yl}phenyl)ethyl]-1,4-oxazepane-2-carboxamide]	> 2.5	5 to 15		
CO[C@@H]1CCNC[C@@H](C(=O)NC(C#N)Cc2cnc(-c3ccc4c(F)nn(C)c4c3)s2)OC1 (mixture of isomers) [Compound A38, (2S,7R)—N-{1-cyano-2-[2-(3-fluoro-1-methylindazol-6-yl)-1,3-thiazol-5-yl]ethyl}-7-methoxy-1,4-oxazocane-2-carboxamide]	1 to 2.5	5 to 15		
Cn1c(=O)oc2ccc3c(c21)COc1cc(CC(C#N)NC(=O)[C@@H]2CNCCCO2)c(F)cc1-3 (mixture of isomers) [Compound C2, (2S)—N-(1-cyano-2-(8-fluoro-3-methyl-2-oxo-3,4-dihydro-2H-benzo[3,4]isochromeno[8,7-d]oxazol-7-yl)ethyl)-1,4-oxazepane-2-carboxamide]	> 2.5	> 15		
CO[C@@H]1CCNC[C@@H](C(=O)NC(C#N)Cc2cc3cc(-c4cc5c(C)nc(C)cn5c4)ccc3s2)OC1 (single isomer, unassigned) [Compound A52]	> 2.5	> 15		
Cn1c(=O)oc2cc3c(cc21)-c1cc(F)c(C[C@@H](C#N)NC(=O)[C@@H]2CNCCCO2)cc1OC3 [Compound C1-B]	1 to 2.5	< 5		
Cc1c(C(N)=O)sc2ncc(-c3ccc(C[C@@H](C#N)NC(=O)[C@@H]4CNCCCO4)cc3)cc12 [Compound A19, (2S)—N-[(1S)-2-(4-{2-carbamoyl-3-methylthieno[2,3-b]pyridin-5-yl}phenyl)-1-cyanoethyl]-1,4-oxazepane-2-carboxamide]	> 2.5	> 15		
CO[C@@H]1CCNC[C@@H](C(=O)N[C@H](C#N)Cc2ccc(-c3ccc4c(c3)CCC(=O)N4C)cc2)OC1 [Compound A145]	1 to 2.5	< 5		
N#C[C@H](Cc1ccc(-c2cc3c(F)nccn3c2)cc1)NC(=O)[C@@H]1CNCCCO1 [Compound A66]	> 2.5	> 15		
N#C[C@H](Cc1ccc(-c2ccc3c(c2)[C@]2(CCCN(c4nccs4)C2)COC3)cc1)NC(=O)[C@@H]1CNCCCO1 [Compound I20]	> 2.5	> 15		
COc1ccc(-c2ccc(C[C@@H](C#N)NC(=O)[C@@H]3CNCCCO3)cc2)cc1-n1cnnc1 [Compound 31, (2S)—N-[(1S)-1-cyano-2-[4′-methoxy-3′-(1,2,4-triazol-4-yl)-[1,1′-biphenyl]-4-yl]ethyl]-1,4-oxazepane-2-carboxamide]	> 2.5	> 15		
N#C[C@H](Cc1ccc(-c2cnc3c(c2)COCCN3)cc1)NC(=O)[C@@H]1CNCCCO1 [Compound A9, (2S)—N-[(1S)-1-cyano-2-(4-{1H,2H,3H,5H-pyrido[2,3-e][1,4]oxazepin-7-yl}phenyl)ethyl]-1,4-oxazepane-2-carboxamide]	> 2.5	> 15		
C[C@@H]1NC[C@@H](C(=O)N[C@H](C#N)Cc2ccc(-c3ccc4c(F)nn(C)c4c3)cc2F)OC[C@@H]1O [Compound A166]	1 to 2.5	5 to 15		
CO[C@H]1CCO[C@H](C(=O)NC(C#N)Cc2cc3c(cc2F)-c2ccc(C#N)cc2CO3)CNC1 (single isomer, unassigned) [Compound B14]	> 2.5	> 15		
N#C[C@H](Cc1ccc(-c2ccc3c(c2)C2(CCNC2)OC3=O)cc1)NC(=O)[C@@H]1CNCCCO1 (stereo partly drawn) [Compound 25, (2S)—N-[(1S)-1-cyano-2-(4-{3-oxospiro[2-benzofuran-1,3′-pyrrolidin]-6-yl}phenyl)ethyl]-1,4-oxazepane-2-carboxamide]	> 2.5	> 15		
N#C[C@H](Cc1ccc2c(c1)OCc1ccc(C3CCNC3)cc1-2)NC(=O)[C@@H]1CNCCCO1 (stereo partly drawn) [Compound B1, (2S)—N-[(1S)-1-cyano-2-[9-(pyrrolidin-3-yl)-6H-benzo[c]chromen-3-yl]ethyl]-1,4-oxazepane-2-carboxamide]			> 2.5	> 15
N#C[C@H](Cc1ccc(-c2ccc3c(c2)C2(CCN(C4COC4)CC2)COC3)cc1)NC(=O)[C@@H]1CNCCCO1 [Compound I5]	> 2.5	5 to 15		
CO[C@H]1CCO[C@H](C(=O)N[C@H](C#N)Cc2ccc(-c3cc4c(C)nc(C)cn4c3)cc2F)CNC1 [Compound A48, (2S,6S)—N-[(1S)-1-cyano-2-(4-{1,3-dimethylpyrrolo[1,2-a]pyrazin-7-yl}-2-fluorophenyl)ethyl]-6-methoxy-1,4-oxazocane-2-carboxamide]	1 to 2.5	5 to 15		
